We go through 16 molecules from patent US8343993B2, “Hydroxyalkyl substituted imidazonaphthyridines” (3M Innovative Properties Company, priority 2005, dated 2013).

Structures can show the parent of a compound that is named as a salt. Where two headings read alike, the source gives them in different places.

One series deals with IFN-α. The experiment in a line: Cytokine induction in human cells (PBMC): IFN-α secreted into culture media, ELISA. Type of series: cell-based. Particulars: median where several experiments; for minimal effective concentration: 30-0.014 μM, lowest concentration inducing over 20 pg/mL, read-out: Minimum Effective Concentration IFN. An excerpt:
(§1) An in vitro human blood cell system is used to assess cytokine induction. Activity is based on the measurement of interferon (α) and tumor necrosis factor (α) (IFN-α, and TNF-α, respectively) secreted into culture media as described by Testerman et. al. in “Cytokine Induction by the Immunomodulators Imiquimod and S-27609”, Journal of Leukocyte Biology, 58, 365-372 (September, 1995).
(§2) Whole blood from healthy human donors is collected by venipuncture into vacutainer tubes or syringes containing EDTA. Peripheral blood mononuclear cells (PBMC) are separated from whole blood by density gradient centrifugation using HISTOPAQUE-1077 (Sigma, St. Louis, Mo.) or Ficoll-Paque Plus (Amersham Biosciences Piscataway, N.J.). Blood is diluted 1:1 with Dulbecco's Phosphate Buffered Saline (DPBS) or Hank's Balanced Salts Solution (HBSS). Alternately, whole blood is placed in Accuspin (Sigma) or LeucoSep (Greiner Bio-One, Inc., Longwood Fla.) centrifuge frit tubes containing density gradient medium. The PBMC layer is collected and washed twice with DPBS or HBSS and re-suspended at 4×10^6 cells/mL in RPMI complete. The PBMC suspension is added to 96 well flat bottom sterile tissue culture plates containing an equal volume of RPMI complete media containing test compound.
(§3) The compounds are solubilized in dimethyl sulfoxide (DMSO). The DMSO concentration should not exceed a final concentration of 1% for addition to the culture wells. The compounds are generally tested at concentrations ranging from 30-0.014 μM. Controls include cell samples with media only, cell samples with DMSO only (no compound), and cell samples with reference compound.
(§4) The solution of test compound is added at 60 μM to the first well containing RPMI complete and serial 3 fold dilutions are made in the wells. The PBMC suspension is then added to the wells in an equal volume, bringing the test compound concentrations to the desired range (usually 30-0.014 μM). The final concentration of PBMC suspension is 2×10^6 cells/mL. The plates are covered with sterile plastic lids, mixed gently and then incubated for 18 to 24 hours at 37° C. in a 5% carbon dioxide atmosphere.
(§5) Following incubation the plates are centrifuged for 10 minutes at 1000 rpm (approximately 200×g) at 4° C. The cell-free culture supernatant is removed and transferred to sterile polypropylene tubes. Samples are maintained at −30 to −70° C. until analysis. The samples are analyzed for IFN-α by ELISA and for TNF-α by IGEN/BioVeris Assay.
IFN-α concentration is determined with a human multi-subtype colorimetric sandwich ELISA (Catalog Number 41105) from PBL Biomedical Laboratories, Piscataway, N.J. Results are expressed in pg/mL.
Analysis of the data has two steps. First, the greater of the mean DMSO (DMSO control wells) or the experimental background (usually 20 pg/mL for IFN-α and 40 pg/mL for TNF-α) is subtracted from each reading. If any negative values result from background subtraction, the reading is reported as “*” and is noted as not reliably detectable. In subsequent calculations and statistics, “*” is treated as a zero. Second, all, background subtracted values are multiplied by a single adjustment ratio to decrease experiment to experiment variability. The adjustment ratio is the area of the reference compound in the new experiment divided by the expected area of the reference compound based on the past 61 experiments (unadjusted readings). […] The reference compound used is 2-[4-amino-2-ethoxymethyl-6,7,8,9-tetrahydro-α,α-dimethyl-1H-imidazo[4,5-c]quinolin-1-yl]ethanol hydrate (U.S. Pat. No. 5,352,784; Example 91) and the expected area is the sum of the median dose values from the past 61 experiments.
The minimum effective concentration is calculated based on the background-subtracted, reference-adjusted results for a given experiment and compound. […]
(In general: ELISA stands for enzyme-linked immunosorbent assay.)

The next series has as its system TNF-α. Briefly: Cytokine induction in human cells (PBMC): TNF-α secreted into culture media, ORIGEN M-Series immunoassay. Particulars: median where several experiments; for minimal effective concentration: 30-0.014 μM, lowest concentration inducing over 40 pg/mL, read-out: Minimum Effective Concentration TNF; for Maximal Response TNF: Table 4, background-subtracted, reference-adjusted, * = below background. Type of series: cell-based.
From the text: as §1, §2, §3, §4, §5
The TNF-α concentration is determined by ORIGEN M-Series Immunoassay and read on an IGEN M-8 analyzer from BioVeris Corporation, formerly known as IGEN International, Gaithersburg, Md. The immunoassay uses a human TNF-α capture and detection antibody pair (Catalog Numbers AHC3419 and AHC3712) from Biosource International, Camarillo, Calif. Results are expressed in pg/mL.
Analysis of the data has two steps. First, the greater of the mean DMSO (DMSO control wells) or the experimental background (usually 20 pg/mL for IFN-α and 40 pg/mL for TNF-α) is subtracted from each reading. If any negative values result from background subtraction, the reading is reported as “*” and is noted as not reliably detectable. In subsequent calculations and statistics, “*” is treated as a zero. Second, all, background subtracted values are multiplied by a single adjustment ratio to decrease experiment to experiment variability. The adjustment ratio is the area of the reference compound in the new experiment divided by the expected area of the reference compound based on the past 61 experiments (unadjusted readings). […] The reference compound used is 2-[4-amino-2-ethoxymethyl-6,7,8,9-tetrahydro-α,α-dimethyl-1H-imidazo[4,5-c]quinolin-1-yl]ethanol hydrate (U.S. Pat. No. 5,352,784; Example 91) and the expected area is the sum of the median dose values from the past 61 experiments. […]

`Cc1nc2c(N)nc3cccnc3c2n1CC(C)(C)F` [Analog 8, 1-(2-fluoro-2-methylpropyl)-2-methyl-1H-imidazo[4,5-c][1,5]naphthyridin-4-amine, reference compound]: the minimal effective concentration with IFN-α (Table 4, 18 to 24 hours) was 0.37 µM; in the series with TNF-α (Table 4, 18 to 24 hours), 10 µM.

As for `CCc1nc2c(N)nc3cccnc3c2n1CC(C)(C)O` [Analog 4, 1-(4-amino-2-ethyl-1H-imidazo[4,5-c][1,5]naphthyridin-1-yl)-2-methylpropan-2-ol, reference compound], the minimal effective concentration with IFN-α (Table 4, 18 to 24 hours) worked out at 0.37 µM; with TNF-α (Table 4, 18 to 24 hours), 3.33 µM.

As usually defined, the melting point is the temperature, or range, at which the solid turns liquid. In the case of `CC(C)Cn1c(CO)nc2c(N)nc3cccnc3c21` [Example 96, [4-Amino-1-(2-methylpropyl)-1H-imidazo[4,5-c][1,5]naphthyridin-2-yl]methanol], the melting point lay in the range of 226 to 228 °C. The minimal effective concentration in the series with IFN-α (Table 4, 18 to 24 hours) came out at 1.11 µM. For the same molecule, the minimal effective concentration in the series on TNF-α (Table 4, 18 to 24 hours) turned out to be 30 µM.

In the case of `CCOCc1nc2c(N)nc3cccnc3c2n1CC(C)(C)O` [Analog 1, 1-(4-amino-2-ethoxymethyl-1H-imidazo[4,5-c][1,5]naphthyridin-1-yl)-2-methylpropan-2-ol], the melting point fell in the range of 157 to 159 °C. Besides, the minimal effective concentration with IFN-α (Table 3, 18 to 24 hours) is 0.12 µM. In addition, the minimal effective concentration in the series on IFN-α (Table 4, 18 to 24 hours) was 0.12 µM. For the same molecule, in the series on TNF-α (Table 3, 18 to 24 hours), the minimal effective concentration was found to be 1.11 µM. Besides, the minimal effective concentration in the series with TNF-α (Table 4, 18 to 24 hours) is 1.11 µM.

With `CS(=O)(=O)NCCn1c(CO)nc2c(N)nc3cccnc3c21` [Example 4, N-[2-(4-Amino-2-hydroxymethyl-1H-imidazo[4,5-c][1,5]naphthyridin-1-yl)ethyl]methanesulfonamide], the melting point was in the range of 239 to 242 °C. The minimal effective concentration in the series on IFN-α (Table 4, 18 to 24 hours) was 10 µM. The minimal effective concentration in the series on TNF-α (Table 4, 18 to 24 hours) was more than 30 µM. Moreover, the “Maximal Response TNF” value in the series on TNF-α is “* (Below the experimental background of 40 pg/mL)”.

As for `CS(=O)(=O)NCCn1c(CCO)nc2c(N)nc3cccnc3c21` [Example 5, N-{2-[4-Amino-2-(2-hydroxyethyl)-1H-imidazo[4,5-c][1,5]naphthyridin-1-yl]ethyl}methanesulfonamide], the melting point lay in the range of 136 to 138 °C. Further, the minimal effective concentration in the series on IFN-α (Table 4, 18 to 24 hours) is 30 µM. Besides, the minimal effective concentration in the series with TNF-α (Table 4, 18 to 24 hours) is more than 30 µM. Besides, in the series with TNF-α, the “Maximal Response TNF” value is recorded as “* (Below the experimental background of 40 pg/mL)”.

Regarding `Cc1nc2c(N)nc3cccnc3c2n1CC(C)(C)O` [Analog 3, 1-(4-amino-2-methyl-1H-imidazo[4,5-c][1,5]naphthyridin-1-yl)-2-methylpropan-2-ol, reference compound], the minimal effective concentration was 0.37 µM with IFN-α (Table 4, 18 to 24 hours) and 3.33 µM in the series with TNF-α (Table 4, 18 to 24 hours).

Regarding `CC(C)(O)Cn1c(CO)nc2c(N)nc3cccnc3c21` [Example 6, 1-(4-Amino-2-hydroxymethyl-1H-imidazo[4,5-c][1,5]naphthyridin-1-yl)-2-methylpropan-2-ol], the melting point fell in the range of 235 to 237 °C. Also, in the series on IFN-α (Table 3, 18 to 24 hours), the minimal effective concentration worked out at 1.11 µM. In addition, the minimal effective concentration in the series with IFN-α (Table 4, 18 to 24 hours) is recorded as 1.11 µM. In addition, the minimal effective concentration with TNF-α (Table 3, 18 to 24 hours) stood at 10 µM. Besides, in the series on TNF-α (Table 4, 18 to 24 hours), the minimal effective concentration was 10 µM.

Turning to `CC(C)(Cn1c(CO)nc2c(N)nc3cccnc3c21)NS(C)(=O)=O` [Example 2, N-[2-(4-Amino-2-hydroxymethyl-1H-imidazo[4,5-c][1,5]naphthyridin-1-yl)-1,1-dimethylethyl]methanesulfonamide], the melting point was in the range of 268 to 271 °C. The minimal effective concentration in the series with IFN-α (Table 4, 18 to 24 hours) was found to be 10 µM. Also, the minimal effective concentration with TNF-α (Table 4, 18 to 24 hours) came out at 30 µM.

With `CC(C)(Cn1c(CO)nc2c(N)nc3cccnc3c21)NC(=O)C1CCCCC1` [Example 1, N-[2-(4-Amino-2-hydroxymethyl-1H-imidazo[4,5-c][1,5]naphthyridin-1-yl)-1,1-dimethylethyl]cyclohexanecarboxamide], the melting point fell in the range of 230 to 232 °C. Besides, in the series on IFN-α (Table 4, 18 to 24 hours), the minimal effective concentration was 1.11 µM. For the same molecule, in the series on TNF-α (Table 4, 18 to 24 hours), the minimal effective concentration stood at 10 µM.

On to `Cc1nc2c(N)nc3cccnc3c2n1CC(C)C` [Analog 10, 2-methyl-1-(2-methylpropyl)-1H-imidazo[4,5-c][1,5]naphthyridin-4-amine, reference compound], for which the minimal effective concentration stood at 0.37 µM in the series with IFN-α (Table 4, 18 to 24 hours) and 1.11 µM with TNF-α (Table 4, 18 to 24 hours).

`COCCc1nc2c(N)nc3cccnc3c2n1CC(C)(C)O` (as salt: hydrobromid) [Analog 2, 1-[4-amino-2-(2-methoxyethyl)-1H-imidazo[4,5-c][1,5]naphthyridin-1-yl]-2-methylpropan-2-ol] yielded a melting point of 234 to 235 °C.

With `CCOCc1nc2c(N)nc3cccnc3c2n1CC(C)C` [Analog 9, 2-ethoxymethyl-1-(2-methylpropyl)-1H-imidazo[4,5-c][1,5]naphthyridin-4-amine, reference compound], the minimal effective concentration in the series on IFN-α (Table 4, 18 to 24 hours) is 0.12 µM; with TNF-α (Table 4, 18 to 24 hours), 1.11 µM.

With `COCCc1nc2c(N)nc3cccnc3c2n1CC(C)(C)O` [Analog 2, 1-[4-amino-2-(2-methoxyethyl)-1H-imidazo[4,5-c][1,5]naphthyridin-1-yl]-2-methylpropan-2-ol, reference compound], the minimal effective concentration is 0.04 µM in the series with IFN-α (Table 3, 18 to 24 hours); 0.04 µM in the series with IFN-α (Table 4, 18 to 24 hours); 0.37 µM with TNF-α (Table 3, 18 to 24 hours); 0.37 µM in the series on TNF-α (Table 4, 18 to 24 hours).

Regarding `CCOCc1nc2c(N)nc3cccnc3c2n1CC(C)(C)NS(C)(=O)=O` [Analog 7, N-[2-(4-amino-2-ethoxoxymethyl-1H-imidazo[4,5-c][1,5]naphthyridin-1-yl)-1,1-dimethylethyl]methanesulfonamide, reference compound], the minimal effective concentration worked out at 0.04 µM in the series on IFN-α (Table 4, 18 to 24 hours) and 0.37 µM with TNF-α (Table 4, 18 to 24 hours). Further, the “Maximal Response IFN” value in the series on IFN-α (Table 4, background-subtracted, reference-adjusted) turned out to be 2465 pg/mL. In the series on TNF-α, the “Maximal Response TNF” value amounted to 9234 pg/mL.

With `CCCc1nc2c(N)nc3cccnc3c2n1CC(C)(C)O` [Analog 5, 1-(4-amino-2-propyl-1H-imidazo[4,5-c][1,5]naphthyridin-1-yl)-2-methylpropan-2-ol, reference compound], the minimal effective concentration in the series on IFN-α (Table 4, 18 to 24 hours) worked out at 0.12 µM; in the series on TNF-α (Table 4, 18 to 24 hours), 1.11 µM.
